A short description of this data set: in vitro. Particulars: human, hela cells, % viability.
On to `COc1ccc(F)cc1S(=O)(=O)Nc1cccc(C)n1` [CBK268842], for which the viability at 28.5 h, 10 µM came to 84.9%.

As to `NC(=O)C1CCN(C(=O)CCCSc2nc(-c3ccco3)cc(C(F)(F)F)n2)CC1` [CBK268844], the viability at 28.5 h, 10 µM stood at 98.5%.

Turning to `O=C(NCC(O)c1ccc([N+](=O)[O-])cc1)c1cccc(S(=O)(=O)N2CCCC2)c1` (stereo not drawn) [CBK268847], the viability at 28.5 h, 10 µM was 119%.

As for `COc1ccc(N2C(=O)CC(N3CCN(c4ccc(S(=O)(=O)N5CCCC5)cc4)CC3)C2=O)cc1` (stereo not drawn) [CBK268851], the viability at 28.5 h, 10 µM is 85.1%.

Take `CCOC(=O)C1CCN(Cc2nc(-c3ccc(OC)c(OC)c3)no2)CC1` [CBK268852]: the viability at 28.5 h, 10 µM amounted to 92.4%.

With `CC(Oc1ccccc1)C(=O)Nc1ccc(-c2csc(-c3ccccc3)n2)cc1` (stereo not drawn) [CBK268855], the viability at 28.5 h, 10 µM came to 103%.

Turning to `CCOc1ccc(C)cc1S(=O)(=O)NCCc1c(C)[nH]c2c(Cl)cccc12` [CBK268859], the viability at 28.5 h, 10 µM turned out to be 86.8%.

On to `Cc1noc(/C=C\c2cc(C)n(-c3ccc(C(=O)O)cc3)c2C)c1[N+](=O)[O-]` [CBK268862], for which the viability at 28.5 h, 10 µM amounted to 98.8%.

For `Cc1c(Cl)cccc1NC(=S)/N=C(\N)Nc1nc(C)c2ccccc2n1` [CBK268866], the viability at 28.5 h, 10 µM was found to be 86.9%.

For the molecule `O=C(CN1CCN(c2ccccn2)CC1)N1c2ccccc2CCc2ccccc21` [CBK268868G], the viability at 28.5 h, 10 µM was determined as 98.4%.

Regarding `CSc1ncc(Cl)c(C(=O)Nc2ccc(S(=O)(=O)N3CCC(Cc4ccccc4)CC3)cc2)n1` [CBK268870], the viability at 28.5 h, 10 µM was found to be 96.3%.

As to `Cc1ccc(-c2cn(S(=O)(=O)c3cccc4nsnc34)nc2N)cc1` [CBK268871], the viability at 28.5 h, 10 µM stood at 113%.

In the case of `c1ccc2nc3c(nc2c1)sc1nc2ccccc2n13` [CBK268872], the viability at 28.5 h, 10 µM came to 104%.

Consider `CCc1nnc(Sc2ccc(C=O)cc2[N+](=O)[O-])[nH]1` [CBK268876], for which the viability at 28.5 h, 10 µM worked out at 95.4%.

With `Cc1ccc(-c2noc(CSc3nnc(-c4ccncc4)n3-c3ccc(C)cc3)n2)cc1` [CBK268879], the viability at 28.5 h, 10 µM was determined as 101%.

With `CCN1CCN(C(=O)CN(C)S(=O)(=O)c2ccc(OC)c(C)c2)CC1` [CBK268880], the viability at 28.5 h, 10 µM was determined as 110%.

Take `CCOC(=O)c1cnc(Nc2nc3ccccc3o2)nc1CSc1ncccn1` [CBK268885]: the viability at 28.5 h, 10 µM worked out at 103%.

Regarding `CSc1ncc(Cl)c(C(=O)Nc2sc3c(c2C(=O)NC2CCS(=O)(=O)C2)CCC(C)C3)n1` (stereo not drawn) [CBK268886], the viability at 28.5 h, 10 µM came to 95.2%.

Take `N#Cc1ccccc1COC(=O)c1cc(-c2ccc(/C=C/c3[nH]c(=O)[nH]c(=O)c3[N+](=O)[O-])o2)ccc1Cl` [CBK268888]: the viability at 28.5 h, 10 µM amounted to 111%.

Consider `CCOC(=O)C1=C(CSc2nc3ccccc3[nH]2)NC(=O)NC1c1cccc([N+](=O)[O-])c1` (stereo not drawn) [CBK268889], for which the viability at 28.5 h, 10 µM was found to be 96.2%.

Take `N=C(Nc1nc(CSc2nnc(N)s2)cc(=O)[nH]1)Nc1ccc(Cl)cc1Cl` [CBK268890]: the viability at 28.5 h, 10 µM is 85.5%.

Turning to `Cc1ccc(-n2c(SCC(=O)NCc3ccccc3)nnc2-c2ccccc2O)c(C)c1` [CBK268892], the viability at 28.5 h, 10 µM came out at 91.5%.

On to `COc1ccc(Cl)cc1NC(=O)C1CC(=O)N=C(N2CCOCC2)N1` (stereo not drawn) [CBK268893], for which the viability at 28.5 h, 10 µM is 100%.

For the molecule `O=C1c2cccc3cccc(c23)C(=O)N1CCCSc1nnc[nH]1` [CBK268894], the viability at 28.5 h, 10 µM came out at 66.4%.

With `COc1ccc(N2C(=O)CC(n3c(CCCCO)nc4ccccc43)C2=O)cc1` (stereo not drawn) [CBK268895], the viability at 28.5 h, 10 µM turned out to be 107%.

On to `Cc1cc(C)c(C)c(S(=O)(=O)NCCCC(=O)O)c1C` [CBK268898], for which the viability at 28.5 h, 10 µM is 83.8%.

Regarding `COc1ccc(Cl)c(NC(=O)NCCN2CCN(c3ccccc3)CC2)c1` [CBK268899], the viability at 28.5 h, 10 µM amounted to 90.7%.

Regarding `COc1ccccc1NS(=O)(=O)c1ccc2c(c1)C1C=CCC1C(c1ccc(C(=O)O)cc1)N2` (stereo not drawn) [CBK268903], the viability at 28.5 h, 10 µM is 101%.

For the molecule `CSc1nsc(SCC(=O)c2ccc3c(c2)OCCO3)n1` [CBK268904], the viability at 28.5 h, 10 µM came out at 108%.

`Cc1ccc(-n2c(SCC(=O)Nc3ccccc3F)nnc2-c2ccccc2O)c(C)c1` [CBK268905]: the viability at 28.5 h, 10 µM is 88.6%.

For the molecule `CSc1nc(-n2nc(C)cc2C)c2c3c(sc2n1)COC(C)(C)C3` [CBK268906], the viability at 28.5 h, 10 µM is 89.7%.

For the molecule `Cc1cccnc1NC(=S)NCc1ccco1` [CBK268907], the viability at 28.5 h, 10 µM stood at 103%.

For `O=C(NC(=S)Nc1ccc2[nH]c(=O)[nH]c2c1)c1ccc(OCc2ccccc2)cc1` [CBK268908], the viability at 28.5 h, 10 µM turned out to be 83.8%.

Consider `COc1ccc(C(=O)c2ccc(N3CCN(C4CC(=O)NC4=O)CC3)cc2)cc1F` (stereo not drawn) [CBK268909], for which the viability at 28.5 h, 10 µM stood at 94.2%.

As to `Cc1ccc(Cn2nc(C)c(NC(=O)c3nc4ncccn4n3)c2C)cc1` [CBK268912], the viability at 28.5 h, 10 µM was 90.9%.

On to `Cc1c(Br)c([N+](=O)[O-])nn1C(C)C(=O)Nc1sc2c(c1C(N)=O)CCCC2` (stereo not drawn) [CBK268914], for which the viability at 28.5 h, 10 µM was 88.1%.

Turning to `O=C(O)c1cn(C2CC2)c2cc(N3CCN(C(=S)Nc4ccc5c(c4)OCCO5)CC3)c(F)cc2c1=O` [CBK268916], the viability at 28.5 h, 10 µM was 90.9%.

Regarding `CCOC(=O)c1ccc(NC(=O)c2ccccc2-c2nc(-c3ccccc3Cl)no2)cc1` [CBK268919], the viability at 28.5 h, 10 µM was 111%.

As to `CSc1ncc(Cl)c(C(=O)Nc2nnc(C)s2)n1` [CBK268920], the viability at 28.5 h, 10 µM stood at 90.1%.

For the molecule `CCC(C)NC(=O)c1ccc2nccnc2c1` (stereo not drawn) [CBK268921], the viability at 28.5 h, 10 µM is 89.4%.

On to `NC(=O)CSc1nc(NCc2ccccc2)nc(N2CCOCC2)n1` [CBK268923], for which the viability at 28.5 h, 10 µM was 93.3%.

Take `COc1ccc(N2C(=O)CC(N3CCN(c4ccc(C(=O)c5cccnc5)cc4)CC3)C2=O)cc1` (stereo not drawn) [CBK268924]: the viability at 28.5 h, 10 µM amounted to 92.7%.

In the case of `O=C(CN1CCCC1)Nc1sc2c(c1C(=O)NCc1ccccc1)CCCC2` [CBK268926], the viability at 28.5 h, 10 µM turned out to be 105%.

Regarding `N=c1n(CCCOc2ccccc2Cl)c2ccccc2n1CC(N)=O` [CBK268927C], the viability at 28.5 h, 10 µM was 106%.

For the molecule `O=C(COc1ccc2oc3ccccc3c2c1)c1ccccc1` [CBK268931], the viability at 28.5 h, 10 µM was 99.5%.

Turning to `NC(=O)c1ccc(NC(=O)CCCc2nc(-c3ccccc3Cl)no2)cc1` [CBK268932], the viability at 28.5 h, 10 µM is 103%.

In the case of `Cn1c(=O)c2c(ncn2CCCn2cnc3c2c(=O)n(C)c(=O)n3C)n(C)c1=O` [CBK268933], the viability at 28.5 h, 10 µM turned out to be 106%.

On to `O=C(c1ccncc1)c1ccc(N2CCN(C3CC(=O)N(Cc4ccccc4)C3=O)CC2)cc1` (stereo not drawn) [CBK268934], for which the viability at 28.5 h, 10 µM turned out to be 106%.

Take `NS(=O)(=O)c1ccc(NCc2ccccc2OCc2ccccc2F)cc1` [CBK268935]: the viability at 28.5 h, 10 µM came to 91.8%.

Turning to `Cc1ccc(S(=O)(=O)Nc2ccc(-c3cn4cccnc4n3)cc2)cc1[N+](=O)[O-]` [CBK268936], the viability at 28.5 h, 10 µM was determined as 60.5%.

On to `Cc1cc(C)nc(SCC(=O)Nc2cc(C(=O)O)cc([N+](=O)[O-])c2)n1` [CBK268937], for which the viability at 28.5 h, 10 µM came out at 86.8%.

Take `Cc1ccccc1NC(=O)COc1ccc(S(=O)(=O)N2CCCC2)cc1Cl` [CBK268938]: the viability at 28.5 h, 10 µM was 95.2%.

For the molecule `Cn1c(=O)c2c(nc(NCCCO)n2C/C=C/c2ccccc2)n(C)c1=O` [CBK268940], the viability at 28.5 h, 10 µM was determined as 87.2%.

Turning to `CSc1nsc(SCC(=O)OC2CC3CCC2(C)C3(C)C)n1` (stereo not drawn) [CBK268941], the viability at 28.5 h, 10 µM was found to be 92.5%.

On to `Cc1sc(NC(=S)NC(=O)C(C)(C)C)c(C(N)=O)c1C` [CBK268943], for which the viability at 28.5 h, 10 µM was 97.1%.

Take `Cc1ccc(CCC(=O)C(C#N)c2nc3ccccc3s2)o1` (stereo not drawn) [CBK268944]: the viability at 28.5 h, 10 µM was found to be 112%.

As to `O=C(NC(=S)Nc1ccc(N2CCN(Cc3ccccc3F)CC2)cc1)c1ccco1` [CBK268946], the viability at 28.5 h, 10 µM came out at 92.6%.

As for `CSc1nsc(SCC(=O)Nc2ccc(OC(C)=O)cc2)n1` [CBK268948], the viability at 28.5 h, 10 µM is 88.1%.

Take `CCc1c(C)nc2n(c1=O)C(CS(=O)(=O)c1ccccc1)CS2` (stereo not drawn) [CBK268949]: the viability at 28.5 h, 10 µM stood at 94.7%.

In the case of `COc1ccc([N+](=O)[O-])cc1NC(=O)CSc1nnnn1C` [CBK268950], the viability at 28.5 h, 10 µM amounted to 93%.

For the molecule `COc1ccc(/C(C#N)=C/c2ccc(-c3ccc(C(=O)O)cc3)o2)cc1OC` [CBK268953], the viability at 28.5 h, 10 µM amounted to 108%.

For `CC(c1ccccc1)n1c(S)nnc1-c1cc(C(C)(C)C)n[nH]1` (stereo not drawn) [CBK268954], the viability at 28.5 h, 10 µM turned out to be 92.2%.

For the molecule `CCOC(=O)C1CCN(S(=O)(=O)c2ccc(OC)c(C)c2C)CC1` [CBK268955], the viability at 28.5 h, 10 µM was found to be 96.1%.

In the case of `CSc1ncc(Cl)c(C(=O)Nc2sc3c(c2C(=O)NCC2CCCO2)CCC3)n1` (stereo not drawn) [CBK268959], the viability at 28.5 h, 10 µM worked out at 95%.

With `O=C(c1ccc([N+](=O)[O-])cc1)n1nc(-c2cccnc2)nc1NCc1ccc(F)cc1` [CBK268962], the viability at 28.5 h, 10 µM was 96.6%.

For the molecule `O=C(Nc1cccc(-c2cn3cccnc3n2)c1)c1cccc([N+](=O)[O-])c1` [CBK268963], the viability at 28.5 h, 10 µM was determined as 93%.

For `NC(=O)CSc1nnc(-c2cc3ccccc3o2)n1Cc1ccccc1` [CBK268964], the viability at 28.5 h, 10 µM amounted to 90.1%.

With `COc1ccc(CNc2nc(-c3cccnc3)nn2C(=O)c2ccc([N+](=O)[O-])cc2)cc1` [CBK268966], the viability at 28.5 h, 10 µM worked out at 98.9%.

Turning to `O=C(O)CCNS(=O)(=O)c1ccc(I)cc1` [CBK268968], the viability at 28.5 h, 10 µM is 111%.

Consider `CN1CCN(C(=O)CSc2nnc(COc3ccccc3)o2)CC1` [CBK268970], for which the viability at 28.5 h, 10 µM came out at 85.4%.

Consider `CSc1ncc(Cl)c(C(=O)Nc2sc3c(c2C(=O)NCc2ccco2)CCCC3)n1` [CBK268971], for which the viability at 28.5 h, 10 µM was 96.6%.

In the case of `NS(=O)(=O)c1ccc(NC(=O)c2cc([N+](=O)[O-])ccc2N2CCOCC2)cc1` [CBK268972], the viability at 28.5 h, 10 µM was found to be 101%.

Regarding `Cc1cc(C)c(C)c(OCC(=O)N(Cc2nc(-c3ccccc3)no2)C2CCCCC2)c1` [CBK268974], the viability at 28.5 h, 10 µM was 104%.

Turning to `Nc1nn(S(=O)(=O)c2cccc3nsnc23)cc1-c1ccc(Br)cc1` [CBK268975], the viability at 28.5 h, 10 µM was 107%.

Take `CSc1ncc(Cl)c(C(=O)Nc2sc3c(c2C(=O)NCc2ccccc2)CCCC3)n1` [CBK268976]: the viability at 28.5 h, 10 µM came to 99.5%.
